Results published in patent US20240277799A1, “Translational Activators, Including Methods of Discovery and Uses Thereof” (The Board of Trustees of the Leland Stanford Junior …, priority 2023, published 2024).

What was measured:
[1] = system: A459 cells transfected with siRNA targeting RPL11 (siRPL11); experiment: global protein synthesis in cells with insufficient global protein synthesis (siRPL11); format: cell-based; details: FIGS. 4A-4D; for concentrations that increase protein synthesis, fold lower as compared to erythromycin: siRPL11 cells
Procedure: FIGS. 2A-2D provide data and a schematic of an example of a screening method to discover and/or identify translational activators. In this example, cells with decreased global protein synthesis via small interfering RNA (siRNA) knockdown of an RP are cultured within a multi-well format. Each well of cultured cells is contacted with a compound and then examined for global protein synthesis. Compounds that increased global protein synthesis were considered a putative translational activator for further examination.
To begin, cells are prepared (FIG. 2B). In some embodiments, cells having decreased global protein translation are cultured. It should be understood that any cells can be assessed and it is not required that the cells have decreased global protein translation, but cells with decreased global protein translation may improve identification of translational activators. In some embodiments, the cells are known to have a wild-type p53 sequence, which can reduce cofounding factors. Culturing of cells can be in plates, tubes, flasks, and/or any other appropriate container. High throughput methods can use multi-well plates (e.g., 96-well, 384-well, 1536-well, etc.) or any other means for dividing a cell culture into multiple populations.
In some embodiments, the cells that are cultured are manipulated to decrease global translation. In some embodiments, cells are manipulated by reducing expression of or inhibiting functionality of a ribosomal subunit. Examples of ribosomal subunits that can be targeted include (but are not limited to) RPL5, RPL11, RPS6, and RPS19, each of which are involved in various ribosomopathies. One method to reduce ribosomal subunit expression is knockdown via antisense and/or RNA interference (RNAi) technology. […] The example method within FIG. 2B utilizes reverse transfection in which double-stranded siRNA complexes are preformed and transfected into the cells, which are then cultured.
Upon preparing the cells, the cells are then treated with compounds (FIG. 2C). In some embodiments, cultured cells are contacted with a compound to assess their effect on global protein translation. […] If using a pooling strategy, hits can be further assessed to delineate which compound (or combination of compounds) yield the beneficial effect. Compounds can be assessed at a single concentration, or multiple concentrations. […] For high-throughput assessments, multiple cell cultures (e.g., multiple wells) can be assessed concurrently, each cell culture provided with the same conditions except for the compound (or concentration thereof) utilized to contact the cells of the culture.
After a period of incubating the cell culture with a compound, global protein production can be assessed (FIG. 2D). Any readout for measuring protein synthesis can be utilized. […]

[2] = system: A459 cells transfected with a control siRNA (siCTRL); experiment: global protein synthesis in control cells (siCTRL); format: cell-based; details: siCTRL cells with normal global synthesis; FIGS. 4A-4D
Procedure: FIGS. 2A-2D provide data and a schematic of an example of a screening method to discover and/or identify translational activators. In this example, cells with decreased global protein synthesis via small interfering RNA (siRNA) knockdown of an RP are cultured within a multi-well format. Each well of cultured cells is contacted with a compound and then examined for global protein synthesis. Compounds that increased global protein synthesis were considered a putative translational activator for further examination. To begin, cells are prepared (FIG. 2B). In some embodiments, cells having decreased global protein translation are cultured. It should be understood that any cells can be assessed and it is not required that the cells have decreased global protein translation, but cells with decreased global protein translation may improve identification of translational activators. […] If using a pooling strategy, hits can be further assessed to delineate which compound (or combination of compounds) yield the beneficial effect. Compounds can be assessed at a single concentration, or multiple concentrations. […] For high-throughput assessments, multiple cell cultures (e.g., multiple wells) can be assessed concurrently, each cell culture provided with the same conditions except for the compound (or concentration thereof) utilized to contact the cells of the culture. […]

[3] = cellular toxicity, relative total cell count against concentration; details: at concentrations that improve protein synthesis; FIG. 5
Source text: Specifically, FIG. 5 illustrates relative total cell count is plotted against the concentration provided.

Structure (SMILES) | concentrations that increase protein synthesis, fold lower as compared to erythromycin [1] [fold] | increase of protein synthesis in control cells [2] | ability to increase protein synthesis ([1]; siRPL11 cells having insufficient global protein synthesis) | cellular toxicity (relative total cell count) [3]
CC[C@H]1OC(=O)[C@H](C)[C@@H](O[C@H]2C[C@@](C)(OC)[C@@H](O)[C@H](C)O2)[C@H](C)[C@@H](O[C@@H]2O[C@H](C)C[C@H](N(C)C)[C@H]2O)[C@](C)(O)C[C@@H](C)CN(C)[C@H](C)[C@@H](O)[C@]1(C)O [azithromycin] | 10 | increased protein synthesis in control cells |  | 
CC[C@H]1OC(=O)[C@H](C)[C@@H](O[C@H]2C[C@@](C)(OC)[C@@H](O)[C@H](C)O2)[C@H](C)[C@@H](O[C@@H]2O[C@H](C)C[C@H](N(C)C)[C@H]2O)[C@](C)(O)C[C@@H](C)C(=O)[C@H](C)[C@@H](O)[C@]1(C)O [erythromycin] |  |  | increased protein synthesis at high concentrations | 
CC[C@H]1OC(=O)[C@@](C)(F)C(=O)[C@H](C)[C@@H](O[C@@H]2O[C@H](C)C[C@H](N(C)C)[C@H]2O)[C@](C)(OC)C[C@@H](C)C(=O)[C@H](C)[C@H]2N(CCCCn3cc(-c4cccc(N)c4)nn3)C(=O)O[C@]12C [solithromycin] | 10 |  |  | little to no toxicity
CC[C@H]1OC(=O)[C@H](C)C(=O)[C@H](C)[C@@H](O[C@@H]2O[C@H](C)C[C@H](N(C)C)[C@H]2O)[C@](C)(OC)C[C@@H](C)C(=O)[C@H](C)[C@H]2N(CCCCn3cnc(-c4cccnc4)c3)C(=O)O[C@]12C [telithromycin] | 10 |  |  | 
